Reference: paper PMC4285233 (Molecular Microbiology, 2014)

Assays:
[1] = target: T1, Gap1 (general amino acid permease) (Saccharomyces cerevisiae, UniProt P19145); assay: inhibition of L-citrulline uptake in intact yeast; type: cell-based
T1 sequence (P19145 1-602): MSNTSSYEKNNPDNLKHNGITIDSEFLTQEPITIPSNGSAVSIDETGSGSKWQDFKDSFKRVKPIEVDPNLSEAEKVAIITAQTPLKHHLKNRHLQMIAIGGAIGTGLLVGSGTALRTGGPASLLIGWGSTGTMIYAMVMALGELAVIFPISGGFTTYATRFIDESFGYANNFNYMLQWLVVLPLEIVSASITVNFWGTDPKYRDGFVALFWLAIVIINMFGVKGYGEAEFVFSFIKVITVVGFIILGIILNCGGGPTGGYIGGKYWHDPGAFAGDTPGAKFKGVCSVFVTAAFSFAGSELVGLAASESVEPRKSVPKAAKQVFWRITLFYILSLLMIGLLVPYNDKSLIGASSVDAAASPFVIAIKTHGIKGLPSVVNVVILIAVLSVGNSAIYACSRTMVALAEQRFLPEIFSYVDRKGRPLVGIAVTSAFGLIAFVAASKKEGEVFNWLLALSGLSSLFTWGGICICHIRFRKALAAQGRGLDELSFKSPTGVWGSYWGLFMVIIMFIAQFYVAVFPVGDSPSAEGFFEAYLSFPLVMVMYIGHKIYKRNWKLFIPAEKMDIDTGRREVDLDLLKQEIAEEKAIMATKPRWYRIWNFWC

[2] = target: T1, Gap1 (general amino acid permease); assay: inhibition of […]-L-citrulline uptake in intact yeast; type: cell-based

| Ki [2] [µM] | Compound | inhibition of L-citrulline uptake in intact yeast (Fig. S6B, C) [1] |
| --- | --- | --- |
| – | N[C@H](Cc1c[nH]cn1)C(=O)O [D-histidine] | Moreover they are acting largely as competitive inhibitors of L-citrulline transport (Fig. S6B and C) |
| 2.5 | N[C@@H](Cc1c[nH]cn1)C(=O)O [L-histidine] | – |
| 3.3 | N[C@@H](Cc1c[nH]c2ccccc12)C(=O)O [L-tryptophan] | – |
| – | NCCC(=O)O [β-alanine] | Moreover they are acting largely as competitive inhibitors of L-citrulline transport (Fig. S6B and C) |

| Compound | Ki [2] [µM] | inhibition of L-citrulline uptake in intact yeast (Fig. S6B, C) [1] |
| --- | --- | --- |
| NCCCC[C@H](N)C(=O)O [L-lysine] | 9.5 | – |
